Measurements from article PMC6283615, “Anilinoquinoline based inhibitors of trypanosomatid proliferation” (PLoS Neglected Tropical Diseases, 2018).
In brackets after ≈: the same amount, converted by molar mass. Entries after “also recorded” stand apart in the source; their conditions may differ.

Key:
L. major amastigote = experiment: L. major intracellular amastigote luciferase assay in RAW 264.7 macrophages; format: cell-based, Leishmania major; conditions: Leishmania major, RAW264.7; intracellular amastigotes in RAW 264.7 macrophages, 96 h
In short: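 Murine RAW 264.7 macrophages were infected overnight with luciferase-expressing L. major metacyclic promastigotes (MOI 1:10). Non-internalized parasites were washed off before 96 h compound exposure (0.5–10,000 ng/mL) at 37°C, 5% CO2.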

[1] = Rat hepatocyte intrinsic clearance; format: in vitro ADME; conditions: hepatocytes
T. brucei brucei CA427 = experiment: Murine model of acute HAT (T. b. brucei infected mice); format: in vivo
Description: Bloodstream form (BSF) T. brucei brucei CA427 parasites were maintained at densities below 1×10^6 cells/mL in HMI-9 media supplemented with 10% fetal bovine serum (Atlanta Biologicals), 10% SERUM PLUS (Sigma), and 1% Antibiotic-Antimycotic Solution (Corning cellgro) at 37°C, 5% CO2 [18]. Parasites were centrifuged at 5000 xg for 3 min at room temperature and resuspended in cold 1xPBS containing 1% glucose to yield a solution of 2.5×10^6 cells/mL. Correct cell density following resuspension was confirmed using a Z2 Coulter Counter (Beckman). Parasite viability was observed by motility with a Neubauer Bright-line hemocytometer. Cells were kept on ice until infection.
Compound 14 –on day 0, female Swiss-Webster mice (8–10 weeks old, 20–25 g, n = 4 per group) (Harlan) were infected i.p. with 2.5×10^5 trypanosomes by injecting 100 μL of resuspension using 26G needles. Day 1 to 3 post-infection, mice received a single i.p. dose of either drug vehicle (dimethylsulfoxide, 3.4 mL/kg) (Fisher Scientific) or drug (14, 25 mg/kg). Parasitemia was determined on days 2 and 3 post-infection by collecting 3 μL of blood from the tail vein.
Day 1 to 3 post-infection, mice received a single p.o. dose of either drug vehicle (10% NMP and 90% PEG, 10 mL/kg) (Fisher Scientific) or drug (22, 60 mg/kg). From days 4 to 6, the dose was increased to 70 mg/kg for the mice in the treatment group. Parasitemia was determined on days 3 to 6 post-infection by collecting 3 μL of blood from the tail vein.
Blood samples were mixed with 21 μL of RBC Lysis Solution (Qiagen) and incubated at room temperature for 15–45 min prior to observing for parasites by hemocytometer. Humane euthanasia by CO2 overdose followed by incision to form a bilateral pneumothorax was conducted on mice at study termination. All animal experimental protocols were approved and performed in accordance with the guidelines of the Institutional Animal Care and Use Committee (IACUC) at the University of Georgia.

Aqueous solubility = format: physicochemical
T. congolense IL3000 = experiment: In vitro drug sensitivity assay for T. congolense (72 h); format: cell-based; conditions: Trypanosoma congolense, IL3000 strain
Description: In vitro drug sensitivity assay for T. congolense (72 h): Compounds were tested in vitro for efficacy against the IL3000 T. congolense (drug sensitive) strain which was originally derived from the Trans Mara I strain, isolated from a bovine in 1966 in Kenya. […] Compounds were assayed in at least three separate, independent experiments and an 11-point dilution curve was used to determine the EC50 values. Bloodstream form trypanosomes were supported in HMI-9 medium containing 20% bovine serum and were incubated with test compounds for 69 h at 34°C in a humidified atmosphere containing 5% CO2. Thereafter, 10 μL of Resazurin dye (12.5 mg in 100 mL of phosphate-buffered saline, Sigma-Aldrich, Buchs, Switzerland) was added for an additional 3 h. Plates were read using a fluorescence plate reader (Spectramax, Gemini XS, Bucher Biotec, Basel, Switzerland) using an excitation wavelength of 536 nm and an emission wavelength of 588 nm.

[2] = system: T. cruzi amastigote (Tulahuen strain expressing β-galactosidase); experiment: Intracellular T. cruzi assay in 3T3 cells (beta-galactosidase, 96 h); format: cell-based, Trypanosoma cruzi; conditions: for EC50: Trypanosoma cruzi, TULAHUEN, NIH3T3, 96 h, read-out: T. cruzi amastigote EC50
In short: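 3T3 cells in phenol-red-free DMEM with 2% FBS were infected with Tulahuen β-galactosidase trypomastigotes, 5×10^4 per well, and exposed to compounds from 50 μM in 1:2 serial dilutions, in triplicate. After 96 h at 37°C, 5% CO2, 500 μM CPRG in PBS with 0.5% NP40 was added for 4 h; absorbance was read at 590–595 nm.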

[3] = Human liver microsome intrinsic clearance; format: in vitro ADME
LogD7.4 = format: physicochemical; conditions: pH 7.4

SMILES | EC50 (L. major amastigote) [µM] | hepatocyte CLint [1] [µL/min/1e6 cells] | Toxicity in infected mice (T. brucei brucei CA427; 25 mg/kg i.p.) | Mice showing 10-fold reduction in parasitemia (T. brucei brucei CA427; 25 mg/kg i.p., n = 4) [%] | Mice with no detectable parasitemia (T. brucei brucei CA427; 25 mg/kg i.p., n = 4) | Reduction in parasitemia (T. brucei brucei CA427; 25 mg/kg i.p., vs DMSO vehicle) [fold] | solubility (Aqueous solubility) [µM] | EC50 (T. congolense IL3000) [µM] | EC50 [2] [µM] | SI (T. cruzi) ([2]; selectivity index calculated relative to 3T3 cells) | microsomal CLint ([3]; liver microsomes) [µL/min/mg] | logD (LogD7.4) | Parasitemia vs control group (T. brucei brucei CA427; p.o. once daily 60 mg/kg days 1-3, then 70 mg/kg, by day 5, vehicle 10% NMP 90% PEG) | Toxicity in infected mice (T. brucei brucei CA427; p.o. once daily 60 mg/kg, first three days) | Human Liver Microsome CLint [3] [µL/min/mg] | LogD7.4 (LogD7.4)
CN1CCN(c2ncc(-c3ccc4c(Nc5ccc(OCc6cccc(F)c6)c(Cl)c5)ccnc4c3)cn2)CC1 [Compound 14] | 1.5 | 24 | no evidence of toxicity | 75 | one had no detectable parasitemia | 10 | < 1 | 0.16 | 0.09 | 170 | 54 | 3.4 |  |  |  | 
CN1CCN(c2ncc(-c3ccc4c(Nc5cnccn5)ccnc4c3)cn2)CC1 [Compound 22] | 2.5 | 130 |  |  |  |  | 44 (≈ 17.5 µg/mL) | 0.05 | 6 |  |  |  | no statistically significant difference; also recorded: failed to affect parasitemia | no signs of toxicity | 180 | 3.3
